{"source": "patent US20250177412A1", "about": "“SMALL-MOLECULE INHIBITORS TARGETING THE BOB1/OCT1 INTERFACE” (NANTES UNIVERSITE, priority 2022, published 2025)", "key": {"[1]": {"test_system": "mouse embryonic fibroblasts (MEFs)", "assay": "MTT assay", "type": "cell-based", "settings": "data not shown"}, "memory B cells": {"test_system": "memory B cells", "assay": "High-throughput multiplex qPCR of B-cell-related genes", "type": "cell-based, human", "settings": "10 μM", "method": "FIGS. 4A-AA are a combination of heatmap plot and graphs showing expression of B-cell-related genes at day 4 and day 7 of the human B cell differentiation in vitro model in the presence of 0 μM and 10 μM of the compound 005 (n=6). Experimental conditions are as described in the FIG. 3. […] FIG. 4B-AA show expression of the selected genes at day 4 related to proliferation (FIG. 4B-D), plasma-cell differentiation (FIG. 4E-I), immunoglobulin isotype switching (FIG. 4J-M), B-cell identity (FIG. 4N-S), and B-cell activation (FIG. 4T-AA)."}, "PBMCs": {"test_system": "PBMCs", "assay": "T cell recall assay (qPCR and intracellular staining)", "type": "cell-based, human", "method": "Total PBMCs were plated into 96-well round-bottom plates at 0.5×10^6 cells/well and were stimulated with anti-CD3/CD28 Dynabeads (Gibco Life Technologies) at a bead/cell ratio of 0.2:1 in the presence of compound 005 (10 μM) or vehicle (DMSO) for 6 hours to induce polyclonal primary responses. To induce recall responses, cells were stimulated with beads for two days, allowed to rest for eight days in medium supplemented with IL-2 (10 U/mL) and re-stimulated with anti-CD3/CD28 beads for the last 6 hours in the presence of compound 005 ([…]) or vehicle. Expression of Th1-, Th2-, Th17-, and Treg-associated cytokines and transcription factors was assessed by qPCR. For intracellular staining, cells were re-stimulated for 10 hours with anti-CD3/CD28 beads, and Brefeldin A (10 μg/mL, Sigma) was added to the medium 4 hours after the start of re-stimulation. Dead cells were excluded using the LIVE/DEAD® Fixable Aqua Dead Cell Stain Kit (Life Technologies). Subsequently, cells were surface-stained with CD3-BUV395, CD4-BUV737, CD8-Violet650 (all three from BDHorizon), and CD161-PE-Cy7 (from Biolegend) at 4° C. for 30 min, followed by incubation with Fixation/Permeabilization working solution (eBioscience), washed with Permeabilization Buffer and stained with IL-17A-PE and IFNγ-BV711 (both from BD Biosciences). Cells were resuspended in ice-cold FACS buffer (0.5% BSA, 2 mM EDTA and 50 U/mL penicillin/streptomycin in PBS). Flow cytometry data were collected on BD FACSCelesta™ and analyzed using FlowJo™ cell analysis software (FlowJo, LLC).\nTotal RNA was extracted from PBMCs using the RNeasy Micro Kit (Qiagen) according to the manufacturer's protocol. RNA was processed for cDNA synthesis (Fermentas) and analyzed by qPCR with TaqMan gene expression assays for IFNG (Hs00989291_m1), IL-2 (Hs00174114_m1), TNF (Hs00174128_m1), TBX21 (Hs00203436_m1), IL-4 (Hs00174122_m1), GATA3 (Hs00231122_m1), IL-17A (Hs00174383_m1), IL-17F (Hs00369400_m1), IL-21 (Hs00222327_m1), IL-22 (Hs01574154_m1), RORC (Hs01076122_m1), IL-10 (Hs00961622_m1), FOXP3 (Hs01085834_m1), POU2AF1 (Hs01573371_m1) (Thermofisher) using Real-Time PCR QuantStudio3 PCR System (Applied Biosystems). Expressions of all genes were normalized to the expression of GAPDH (4310884E) as housekeeping gene and presented as fold change relative to the reference sample."}}}
{"smiles": "Cc1ccc(NC(=O)C2CN(c3nc(NCCCc4ccc(F)cc4)nc(NCCC(=O)O)n3)c3ccccc3O2)cc1Cl", "note": "(stereo not shown) [compound 005, 3-((4-(2-((3-chloro-4-methylphenyl)carbamoyl)-2,3-dihydro-4H-benzo[b][1,4]oxazin-4-yl)-6-((3-(4-fluorophenyl)propyl)amino)-1,3,5-triazin-2-yl)amino)propanoic acid]", "values": [{"measurement": "concentration showing toxicity", "setting": "[1]", "result": "≥ 80", "unit": "µM"}, {"measurement": "expression of genes related to the B cell identity and activation", "setting": "memory B cells", "result": "upregulated"}, {"measurement": "expression of plasma cell related genes", "setting": "memory B cells", "result": "suppressed"}, {"measurement": "TNF expression", "setting": "PBMCs; initial activation, 6 hours-stimulated cells, 10 μM, data not shown", "result": "significant decrease"}, {"measurement": "IL-17A mRNA, median percentage decrease", "setting": "PBMCs; re-stimulated (recall) cells", "result": 43, "unit": "%"}, {"measurement": "IL-17F mRNA, median percentage decrease", "setting": "PBMCs; re-stimulated (recall) cells", "result": 27, "unit": "%"}, {"measurement": "expression of IL-17A by CD4+ T cells (protein, intracellular staining)", "setting": "PBMCs; re-stimulated cells", "result": "suppressed"}]}
